Reference: patent US12617797B2, “Substituted pyrazolo [1,5-a]pyrimidines having multimodal activity against pain” (ESTEVE PHARMACEUTICALS, S.A., priority 2020, dated 2026)

Columns and labels:
[1] = biological target: Human α2δ-1 subunit of Cav2.2 calcium channel (Homo sapiens, UniProt P54289); assay: Human α2δ-1 subunit of Cav2.2 calcium channel assay ([3H]-gabapentin binding); details: binding to the α2δ-1 subunit of voltage-gated calcium channels expressed as Ki; + also covers inhibition between 1% and 50%
Outline: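 Membranes enriched in human α2δ-1 incubated with 15 nM [3H]-gabapentin in 10 mM Hepes-KOH pH 7.4, 60 min at 27 °C; nonspecific binding defined with 10 μM pregabalin. Filtration and scintillation counting; % inhibition at 1 or 10 μM, or Ki from five concentrations.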

[2] = biological target: T1, Human σ1 receptor (Homo sapiens, UniProt Q99720); assay: Human σ1 receptor radioligand assay ([3H](+)-pentazocine binding, transfected HEK-293 membranes); details: binding to σ1 receptor expressed as Ki; + also covers inhibition between 1% and 50%; read-out: σ-1 binding
T1 construct: expressed in transfected cells; host or cells: HEK-293
Outline: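 Membranes (7 μg) were incubated with 5 nM [3H](+)-pentazocine in 50 mM Tris-HCl pH 8 for 120 min at 37° C. Non-specific binding was defined with 10 μM haloperidol. Values are % inhibition at 1 or 10 μM or Ki from five concentrations, read by filtration and scintillation counting.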

T1 sequence (Q99720 whole entry): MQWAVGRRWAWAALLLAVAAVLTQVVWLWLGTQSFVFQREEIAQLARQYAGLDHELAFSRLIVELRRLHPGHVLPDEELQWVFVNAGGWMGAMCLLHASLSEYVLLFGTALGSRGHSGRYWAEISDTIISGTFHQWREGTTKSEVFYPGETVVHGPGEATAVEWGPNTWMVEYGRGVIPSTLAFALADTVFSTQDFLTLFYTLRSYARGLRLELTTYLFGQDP
Chain of Human α2δ-1 subunit of Cav2.2 calcium channel (P54289 25-1103): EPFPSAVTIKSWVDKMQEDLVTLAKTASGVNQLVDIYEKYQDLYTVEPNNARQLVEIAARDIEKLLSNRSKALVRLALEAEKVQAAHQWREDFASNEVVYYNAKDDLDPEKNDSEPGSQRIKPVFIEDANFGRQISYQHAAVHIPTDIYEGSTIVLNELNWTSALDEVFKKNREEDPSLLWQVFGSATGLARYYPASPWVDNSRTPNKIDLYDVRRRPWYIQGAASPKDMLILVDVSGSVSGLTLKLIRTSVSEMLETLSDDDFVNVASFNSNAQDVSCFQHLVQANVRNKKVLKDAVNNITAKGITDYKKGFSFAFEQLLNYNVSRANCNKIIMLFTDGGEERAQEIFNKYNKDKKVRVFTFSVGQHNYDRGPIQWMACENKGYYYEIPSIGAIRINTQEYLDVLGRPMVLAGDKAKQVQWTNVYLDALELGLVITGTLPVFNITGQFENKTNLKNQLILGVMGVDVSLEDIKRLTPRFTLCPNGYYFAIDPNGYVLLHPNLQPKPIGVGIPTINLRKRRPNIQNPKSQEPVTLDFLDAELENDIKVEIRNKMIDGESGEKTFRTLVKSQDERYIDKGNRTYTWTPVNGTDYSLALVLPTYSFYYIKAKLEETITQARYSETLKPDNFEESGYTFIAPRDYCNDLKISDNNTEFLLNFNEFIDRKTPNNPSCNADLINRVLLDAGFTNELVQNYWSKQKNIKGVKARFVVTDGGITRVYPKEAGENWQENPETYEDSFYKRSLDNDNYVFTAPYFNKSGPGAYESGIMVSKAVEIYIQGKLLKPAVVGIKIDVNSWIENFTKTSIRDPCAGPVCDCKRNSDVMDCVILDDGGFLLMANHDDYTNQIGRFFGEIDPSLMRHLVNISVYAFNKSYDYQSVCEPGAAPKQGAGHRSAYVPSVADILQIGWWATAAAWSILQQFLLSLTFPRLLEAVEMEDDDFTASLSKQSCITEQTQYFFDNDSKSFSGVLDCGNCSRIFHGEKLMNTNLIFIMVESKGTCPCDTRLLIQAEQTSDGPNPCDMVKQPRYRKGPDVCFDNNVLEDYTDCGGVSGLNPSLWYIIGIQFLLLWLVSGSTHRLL

Row | Structure (SMILES) | Ki [1] | Ki [2]
1 | Cc1nn2c(CC3CCCN(Cc4ccc(Cl)cc4)C3)ccnc2c1CN(C)C (stereo not drawn) [Example 251, 1-(7-((1-(4-Chlorobenzyl)piperidin-3-yl)methyl)-2-methylpyrazolo[1,5-a]pyrimidin-3-yl)-N,N-dimethylmethanamine] | > 5000 nM | < 500 nM
2 | Cc1nn2c(CC3CCCN(Cc4cccc(Cl)c4)C3)ccnc2c1CN(C)C (stereo not drawn) [Example 252, 1-(7-((1-(3-Chlorobenzyl)piperidin-3-yl)methyl)-2-methylpyrazolo[1,5-a]pyrimidin-3-yl)-N,N-dimethylmethanamine] | > 5000 nM | < 500 nM
3 | Cc1nn2c(C3CCCCN(Cc4ccc(Cl)cc4)C3)ccnc2c1CNCC1CCOCC1 (stereo not drawn) [Example 253, 1-(7-(1-(4-Chlorobenzyl)azepan-3-yl)-2-methylpyrazolo[1,5-a]pyrimidin-3-yl)-N-((tetrahydro-2H-pyran-4-yl)methyl)methanamine] | > 5000 nM | < 500 nM
